We go through one substance from patent US20220370463A1, “STABILIZED C-FMS INTRACELLULAR FRAGMENTS (FICD) PROMOTE OSTEOCLAST DIFFERENTIATION AND ARTHRITIC BONE EROSION” (New York Society for the Relief of the Ruptured and …, priority 2019, published 2022).

In the experiment the test system is K/BxN serum-induced arthritis. Kind of experiment: K/BxN serum transfer induced arthritis model. It is filed as in vivo, C57BL/6J mice. As for the experimental part: (a and b) BMDMs from WT and FICDtg^M mice was stimulated with RANKL (50 ng/ml) at the indicated time. (a) RT-qPCR of Nfatc1 mRNA normalized relative to Hprt mRNA. (b) Immunoblot with anti NFATc1, HA, or α-tubulin antibodies. (c and d) BMDMs from Csf1r^f/+ Mx1-Cre mice were transduced by lentiviruses encoding FMS^wt, or FMS^mut and then cultured with M-CSF and RANKL. (c) Immunoblot of whole lysate with anti-NFATc1 antibody. α-tubulin was used as a control. […] The intensity of NFATc1 in FMS^mut was set as 100%. (d) Expression mRNA level of NFATc1. (e) Immunoblot of whole cell lysates with phospho-eIF4E antibodies. HA-tagged FICD was detected by HA-antibody. α-tubulin was used as a control. […] (f and g) Human CD14+ cells were treated with CGP57380 at the indicated doses for one hour and cultured with RANKL for one day. […] (g) Nfatc1 mRNA expression was measured by qPCR relative to HPRT. A DMSO-treated RANKL condition was set as 100%. (h) Osteoclastogenesis assay. BMDMs from WT and FICDtg^M mice were treated with CPG57380 at the indicated doses and then cultured with RANKL for three days. […] Scale bar: 100 μm. (i) Cell viability assay. BMDMs WT and FICDtg^M mice was stimulated with CPG57380 at the indicated doses for one day. (j-n) K/BxN serum transfer induced arthritis model. 9-week old male C57BL/6J mice were received K/BxN serum on day 0 and day 2. Vehicle or CPG57380 (40 mg/kg) was administrated intraperitoneally (i.p) at day 2 until day 13 (n=5-6). (j) Schematic diagram showing experimental design. (k) Ankle thickness. (1) Arthritis score. (m) Representative images of TRAP stained histological sections from calcaneocuboid and tarsometatarsal joints. (n) Histomorphometry analysis of tarsal bones. N.OC/B.Pm; Osteoclast number/bone parameter. OC.S/BS; osteoclast surface/bone surface. ES/BS; Eroded surface/bone surface (n=5-6). All data are shown as mean±SEM. *, p<0.05 by One-way ANOVA with a post hoc Tukey test (a, f-i,k,l) or two-tailed, unpaired t-test (d,e,n). Data represent at least three experiments.
FIGS. 11A-11E show calpain regulates FICD generation. (A-E) K/BxN serum transfer induced arthritis model. 8-week old male C57BL/6J mice were received K/BxN serum on day 0 and day 2. Vehicle or MDL28170 (10 mg/kg) was administrated intraperitoneally (i.p) at day 2 until day 11 (n=10). (A) K/BxN Experimental design. (B) Arthritis score. (C) Ankle thickness. (D) Representative images of TRAP stained histological sections from calcaneocuboid and tarsometatarsal joints. (E) Histomorphometry analysis of tarsal bones. N.OC/B.Pm; Osteoclast number/bone parameter. […]
Histomorphometry experiment was performed with tarsal bone of vehicle or MDL28170 treated mice. […] The quantification of osteoclast was performed in paraffin embedded tissues that were stained for TRAP and Methyl green (Vector Laboratories). […]

Where [1] appears, read: CGP57380 40 mg/kg i.p. day 2 until day 13.
[2] abbreviates: MDL28170 10 mg/kg i.p. day 2 until day 11.

For the substance MDL28170, under setting [1], the “severity of arthritis: ankle joint thickness” value is “not affected” and the “severity of arthritis: clinical score” value is on record as “not affected”. Under setting [2], the “severity of arthritis: ankle joint thickness” value was “attenuated” and the “severity of arthritis: clinical score” value is given as “attenuated”.
